# Legend:
# HeLa [1] = experiment: Antiproliferative activity against human HeLa cells; format: functional, cell-based
# A549 [2] = experiment: Antiproliferative activity against human A549 cells; format: functional, cell-based
# HepG2 [3] = experiment: Antiproliferative activity against human HepG2 cells; format: functional, cell-based
# U-251 = experiment: Antiproliferative activity against human U251 cells assessed as reduction in cell viability after 72 hrs by MTT assay; format: functional, cell-based; conditions: U-251, 72 h
# HCT-116 = experiment: Antiproliferative activity against human HCT116 cells assessed as reduction in cell viability after 72 hrs by MTT assay; format: functional, cell-based; conditions: HCT-116, 72 h
# A549 [4] = experiment: Antitumour activity against human A549 cells xenografted in Kunming mice assessed as tumour growth inhibition at 20 mg/kg, iv bid administered and measured after week relative to control; format: functional; conditions: Mus musculus, read-out: TGI
# A549 [5] = experiment: Antitumour activity against human A549 cells xenografted in Kunming mice assessed as tumour growth inhibition at 50 mg/kg, po administered and measured after week relative to control; format: functional; conditions: Mus musculus, read-out: TGI
# A549 [6] = experiment: Antitumour activity against human A549 cells xenografted in Kunming mice assessed as tumour growth inhibition at 10 mg/kg, iv bid administered and measured after week hrs relative to control; format: functional; conditions: Mus musculus, read-out: TGI
# A549/CDDP = experiment: Antiproliferative activity against human A549/CDDP cells assessed as reduction in cell viability after 72 hrs by MTT assay; format: functional, cell-based
# A549/TR = experiment: Antiproliferative activity against human A549/TR cells assessed as reduction in cell viability after 72 hrs by MTT assay; format: functional, cell-based
# A549 [7] = experiment: Antiproliferative activity against human A549 cells assessed as reduction in cell viability after 72 hrs by MTT assay; format: functional, cell-based; conditions: A549, 72 h
# A549 [8] = experiment: Antitumour activity against human A549 cells xenografted in Kunming mice assessed as tumour growth inhibition at 5 mg/kg, iv bid administered and measured after week relative to control; format: functional; conditions: Mus musculus, read-out: TGI
# HepG2 [9] = experiment: Antiproliferative activity against human HepG2 cells assessed as reduction in cell viability after 72 hrs by MTT assay; format: functional, cell-based; conditions: HepG2, 72 h
# MDA-MB-231 [10] = experiment: cells; conditions: Homo sapiens
# Description: Antiproliferative activity against human MDA-MB-231 cells assessed as reduction in cell viability preincubated for 24 hrs under hypoxia condition further incubated for 72 hrs under normaxic condition by MTT assay
# MDA-MB-231 [11] = experiment: cells; conditions: Homo sapiens, MDA-MB-231, 96 h
# Description: Antiproliferative activity against human MDA-MB-231 cells assessed as reduction in cell viability incubated for 96 hrs under normaxic condition by MTT assay
# SK-N-SH [12] = experiment: Antiproliferative activity against human SK-N-SH cells by MTT assay; format: functional, cell-based
# MGC-803 [13] = experiment: Antiproliferative activity against human MGC803 cells by MTT assay; format: functional, cell-based
# HepG2 [14] = experiment: Potency index, ratio of 5-Fluorouracil IC50 to test compound IC50 for antiproliferative activity against human HepG2 cells by MTT assay; format: functional
# HepG2 [15] = experiment: Antiproliferative activity against human HepG2 cells by MTT assay; format: functional, cell-based
# MGC-803 [16] = experiment: Potency index, ratio of 5-Fluorouracil IC50 to test compound IC50 for antiproliferative activity against human MGC803 cells by MTT assay; format: functional
# SK-N-SH [17] = experiment: Potency index, ratio of 5-Fluorouracil IC50 to test compound IC50 for antiproliferative activity against human SK-N-SH cells by MTT assay; format: functional
# NCI-H23 = experiment: cells; format: functional, cell-based; conditions: Homo sapiens, NCI-H23, 48 h
# Description: Antiproliferative activity against human NCI-H23 cells assessed as reduction in cell viability after 48 hrs by MTT assay
# ASPC1 = experiment: cells; format: functional, cell-based; conditions: Homo sapiens, ASPC1, 48 h
# Description: Antiproliferative activity against human Aspc-1 cells assessed as reduction in cell viability after 48 hrs by MTT assay
# SW-620 = experiment: cells; format: functional, cell-based; conditions: Homo sapiens, SW-620, 48 h
# Description: Antiproliferative activity against human SW620 cells assessed as reduction in cell viability after 48 hrs by MTT assay
# PC-3 = experiment: cells; format: functional, cell-based; conditions: Homo sapiens, PC-3, 48 h
# Description: Antiproliferative activity against human PC3 cells assessed as reduction in cell viability after 48 hrs by MTT assay
# NCI-H460 = experiment: Antiproliferative activity against human H460 cells by MTT assay; format: functional, cell-based
# NCI-H1299 = experiment: Antiproliferative activity against human H1299 cells by MTT assay; format: functional, cell-based
# Ca-Ski = experiment: Antiproliferative activity against human CaSki cells by MTT assay; format: functional, cell-based
# HeLa [18] = experiment: Antiproliferative activity against human HeLa cells assessed as reduction in cell viability after 24 hrs by MTT assay; format: functional, cell-based
# SK-BR-3 = experiment: Antiproliferative activity against human SKBR3 cells assessed as reduction in cell viability after 24 hrs by MTT assay; format: functional, cell-based; conditions: SK-BR-3, 24 h
# HepG2 [19] = experiment: Antiproliferative activity against human HepG2 cells assessed as reduction in cell viability after 24 hrs by MTT assay; format: functional, cell-based; conditions: HepG2, 24 h
smiles,measurement,setting,value
CCCCCCc1ccc(-c2cn(Cc3cc(=O)oc4cc(O)ccc34)nn2)cc1,IC50,HeLa [1],8730 to 9160 nM
same,IC50,A549 [2],8730 to 9160 nM
same,IC50,HepG2 [3],8730 to 9160 nM
CC(C)=CCC12OC(C)(C)C3CC(C=C4C(=O)c5c(OCc6cn(CCN7CCOCC7)nn6)cccc5OC431)C2=O (configuration not stated),IC50,U-251,310 to 3750 nM
same,IC50,HCT-116,310 to 3750 nM
same,inhibition in vivo at 20 mg/kg,A549 [4],71.3%
same,inhibition in vivo at 50 mg/kg,A549 [5],66.4%
same,inhibition in vivo at 10 mg/kg,A549 [6],52.2%
same,IC50,A549/CDDP,310 to 3750 nM
same,IC50,A549/TR,310 to 3750 nM
same,IC50,A549 [7],310 to 3750 nM
same,inhibition in vivo at 5 mg/kg,A549 [8],30.9%
same,IC50,HepG2 [9],310 to 3750 nM
COc1ccc(NC(=O)c2ccc(-n3cc(COc4cc(=O)oc5ccccc45)nn3)cc2)cc1OC,IC50,MDA-MB-231 [10],30 nM
same,IC50,MDA-MB-231 [11],1340 nM
COc1cccc(Cn2cc(CNc3ccc(C(=O)/C=C/c4cccnc4)cc3)nn2)c1,IC50,SK-N-SH [12],1530 to 2730 nM
same,IC50,MGC-803 [13],1530 to 2730 nM
same,Ratio IC50,HepG2 [14],2.6 - 6.7
same,IC50,HepG2 [15],1530 to 2730 nM
same,Ratio IC50,MGC-803 [16],2.6 - 6.7
same,Ratio IC50,SK-N-SH [17],2.6 - 6.7
COc1ccc2c(c1)/C(=N\O)C(=O)N2Cc1cn(Cc2ccc(C(=O)NO)cc2)nn1,IC50,NCI-H23,1400 to 2620 nM
same,IC50,ASPC1,1400 to 2620 nM
same,IC50,SW-620,1400 to 2620 nM
same,IC50,PC-3,1400 to 2620 nM
CO[C@H]1C[C@@H]2CC[C@@H](C)[C@@](O)(O2)C(=O)C(=O)N2CCCC[C@H]2C(=O)O[C@H]([C@H](C)C[C@@H]2CC[C@@H](OCCCn3cc(CNc4ccc(Cl)cc4Cl)nn3)[C@H](OC)C2)CC(=O)[C@H](C)/C=C(\C)[C@@H](O)[C@@H](OC)C(=O)[C@H](C)C[C@H](C)/C=C/C=C/C=C/1C,IC50,NCI-H460,6050 to 25900 nM
same,IC50,NCI-H1299,6050 to 25900 nM
same,IC50,Ca-Ski,6050 to 25900 nM
same,IC50,MGC-803 [13],6050 to 25900 nM
COc1ccc(-c2nnn(Cc3cc(F)ccc3F)c2-c2nc3cc(C)ccc3o2)cc1,IC50,HeLa [18],6.8 µg/mL
same,IC50,SK-BR-3,7.1 µg/mL
same,IC50,HepG2 [19],11.2 µg/mL
